Columns and labels:
[1] = target: T1, 2-amino-4-hydroxy-6-hydroxymethyldihydropteridine pyrophosphokinase (Escherichia coli (strain K12), UniProt P26281); assay: Inhibition of Escherichia coli HPPK using [alpha-33P]ATP after 30 mins
T1 sequence (P26281 whole entry): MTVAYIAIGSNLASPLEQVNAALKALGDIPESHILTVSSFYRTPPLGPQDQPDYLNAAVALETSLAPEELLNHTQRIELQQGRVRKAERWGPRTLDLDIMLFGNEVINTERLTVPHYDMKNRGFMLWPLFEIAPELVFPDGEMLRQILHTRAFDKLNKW

[2] = target: T1, 2-amino-4-hydroxy-6-hydroxymethyldihydropteridine pyrophosphokinase; assay: Binding affinity to Escherichia coli HPPK at pH 8.3 by fluorometric titration

For `CC1(C)Nc2nc(N)[nH]c(=O)c2N=C1C(=O)NCC(=O)NCCS(=O)(=O)C[C@H]1O[C@@H](n2cnc3c(N)ncnc32)[C@H](O)[C@@H]1O`, the IC50 [1] was 9.53 µM and the Kd [2] was 4.16 µM.

From ChEMBL document CHEMBL2046320, “Bisubstrate analog inhibitors of 6-hydroxymethyl-7,8-dihydropterin pyrophosphokinase: new lead exhibits a distinct binding mode” (Bioorg Med Chem, 2012)
